According to ChEMBL document CHEMBL4483862, “Open-source discovery of chemical leads for next-generation chemoprotective antimalarials” (2018):

Tested on: Plasmodium berghei
Test: Luciferase/luciferin-expressing antifolate-resistant parasites were used to infect a culture of HepG2 cells that were pre-incubated with compounds. Infected hepatocytes emit light due to the luciferase reaction. Assay results are presented as the percent inhibition of light emission compared to control. […]
Assay type: functional
Conditions: sporozoite; for IC90: read-out: LUCIFERASE INFECTION ASSAY - IC90

Structure (SMILES) | IC90 | other results
CCOC(=O)c1cc(-c2csc(Nc3c(C)cc(C)cc3C)n2)on1 | > 9.23 µM | IC50 (PBLUC_HILL_SLOPE 14.6, PBLUC_R_SQUARED 0.157, read-out: LUCIFERASE INFECTION ASSAY - IC50): 9.07 µM
COc1cc(OC)cc(C(=O)NC(=S)N(Cc2ccccc2)C(C)C)c1 | > 10 µM | IC50 (PBLUC_HILL_SLOPE 14.1, PBLUC_R_SQUARED 0.0494, read-out: LUCIFERASE INFECTION ASSAY - IC50): 8.89 µM
CCN(c1ccccc1)S(=O)(=O)c1cc(NC(=O)Nc2ccccc2C#N)ccc1Cl | > 10 µM | IC50 (PBLUC_HILL_SLOPE 14.4, PBLUC_R_SQUARED 0.0813, read-out: LUCIFERASE INFECTION ASSAY - IC50): > 10 µM
Cc1ccsc1/C=C/c1ccc2cccc(O)c2n1 | > 10 µM | IC50 (PBLUC_HILL_SLOPE 14, PBLUC_R_SQUARED 0.406, read-out: LUCIFERASE INFECTION ASSAY - IC50): 9.41 µM
CCOc1ccc(-n2c(C)cc(/C=N/Nc3nc(C)cc(O)n3)c2C)cc1 | > 10 µM | IC50 (PBLUC_HILL_SLOPE 14.4, PBLUC_R_SQUARED 0.318, read-out: LUCIFERASE INFECTION ASSAY - IC50): 9.96 µM
OCc1ccccc1-c1cn2c(-c3ccc(Cl)cc3)cnc2cn1 | 3.81 µM | IC50 (PBLUC_HILL_SLOPE 13.7, PBLUC_R_SQUARED 0.696, read-out: LUCIFERASE INFECTION ASSAY - IC50): 3.25 µM
CC1CC(C)CN(c2nc3c(c(=O)[nH]c(=O)n3C)n2Cc2ccccc2F)C1 (stereo not given) | > 8.56 µM | IC50 (PBLUC_HILL_SLOPE 14.3, PBLUC_R_SQUARED 0.575, read-out: LUCIFERASE INFECTION ASSAY - IC50): 8.19 µM
COC(=O)c1ccc(-c2cnc3ccc(NCc4cccc(Cl)c4)nn23)cc1 | > 8.4 µM | IC50 (PBLUC_HILL_SLOPE 14.1, PBLUC_R_SQUARED 0.0198, read-out: LUCIFERASE INFECTION ASSAY - IC50): 7.46 µM
COc1cccc(C(=O)c2c(-c3ccco3)c3c4n(c(-c5ccc(Cl)cc5)cn24)CCCC3)c1 | > 10 µM | IC50 (PBLUC_HILL_SLOPE 14.1, PBLUC_R_SQUARED 0.641, read-out: LUCIFERASE INFECTION ASSAY - IC50): 9.18 µM
CC(C)(C)C(=O)CSc1nnc(Nc2ccc(Oc3ccccc3)cc2)s1 | > 10 µM | IC50 (PBLUC_HILL_SLOPE 14.1, PBLUC_R_SQUARED 0.105, read-out: LUCIFERASE INFECTION ASSAY - IC50): 9.89 µM
Cc1sc2ncnc(Sc3nnc(-c4cccs4)n3-c3ccccc3)c2c1C | 3.96 µM | IC50 (PBLUC_HILL_SLOPE 13.8, PBLUC_R_SQUARED 0.706, read-out: LUCIFERASE INFECTION ASSAY - IC50): 3.37 µM
O=C(CN1CCn2cccc2C1c1ccccc1)N1CCc2sccc2C1 (stereo not given) | 4.34 µM | IC50 (PBLUC_HILL_SLOPE 14, PBLUC_R_SQUARED 0.298, read-out: LUCIFERASE INFECTION ASSAY - IC50): 3.71 µM
CCC(C)c1ccc(-n2c(=O)c3ccccc3n3c(SCCc4ccncc4)nnc23)cc1 (stereo not given) | 9.16 µM | IC50 (PBLUC_HILL_SLOPE 14.1, 1.41, PBLUC_R_SQUARED 0.703, 0.467, read-out: LUCIFERASE INFECTION ASSAY - IC50): 5.1 µM
Cc1ccc2nc(NC(=O)COCc3ccccc3)c(C(=O)NC3CCCC3)n2c1 | > 8.12 µM | IC50 (PBLUC_HILL_SLOPE 14.3, PBLUC_R_SQUARED 0.563, read-out: LUCIFERASE INFECTION ASSAY - IC50): 7.54 µM
Cc1cc(C)cc(C(O)c2nc(-c3cccc4ccccc34)c[nH]2)c1 (stereo not given) | > 10 µM | IC50 (PBLUC_HILL_SLOPE 13.8, PBLUC_R_SQUARED 0.489, read-out: LUCIFERASE INFECTION ASSAY - IC50): 9.47 µM
Cc1cc(NC(=O)c2ccc(C)c(C)c2)n(-c2nc3ccccc3[nH]2)n1 | > 9.55 µM | IC50 (PBLUC_HILL_SLOPE 14, PBLUC_R_SQUARED 0.327, read-out: LUCIFERASE INFECTION ASSAY - IC50): 8.17 µM
CNc1nc2cnc(-c3ccc(OC)cc3C)cc2n1Cc1ccc(OC)c(OC)c1 | 1.22 µM | IC50 (PBLUC_HILL_SLOPE 14.3, PBLUC_R_SQUARED 0.611, read-out: LUCIFERASE INFECTION ASSAY - IC50): 1.04 µM
COc1cc(-c2ccnc3n[nH]c(-c4ccc(N(C)C)cc4)c23)cc(OC)c1OC | 3.63 µM | IC50 (PBLUC_HILL_SLOPE 14.6, PBLUC_R_SQUARED 0.557, read-out: LUCIFERASE INFECTION ASSAY - IC50): 3.12 µM
COc1ccc(O)c(C(=O)NNC(=O)C23CC4CC(CC(C4)C2)C3)c1 | > 10 µM | IC50 (PBLUC_HILL_SLOPE 14.2, PBLUC_R_SQUARED 0.249, read-out: LUCIFERASE INFECTION ASSAY - IC50): 8.74 µM
CN(CCCc1[nH]nc(N)c1C#N)c1nc(-c2ccccn2)nc2sc(-c3ccccc3)cc12 | > 10 µM | IC50 (PBLUC_HILL_SLOPE 13.8, PBLUC_R_SQUARED 0.648, read-out: LUCIFERASE INFECTION ASSAY - IC50): 8.54 µM

Structure (SMILES) | IC90 | other results
CC(C)(C)c1ccc(C(=O)NNC(=S)Nc2ccc(Cl)cc2)cc1 | 8.97 µM | IC50 (PBLUC_HILL_SLOPE 14.6, PBLUC_R_SQUARED 0.46, read-out: LUCIFERASE INFECTION ASSAY - IC50): 7.71 µM
O=C(NCCSCc1csc2ccc(Cl)cc12)Nc1ccccc1 | > 8.75 µM | IC50 (PBLUC_HILL_SLOPE 14.3, PBLUC_R_SQUARED 0.456, read-out: LUCIFERASE INFECTION ASSAY - IC50): 8.24 µM
COc1cc(-c2cc(-c3ccccc3)cnc2N)ccc1O | 4.45 µM | IC50 (PBLUC_HILL_SLOPE 13.8, PBLUC_R_SQUARED 0.558, read-out: LUCIFERASE INFECTION ASSAY - IC50): 3.8 µM
COc1ccc(-n2c(C)cc(/C=C(\C#N)C(=O)NCc3nnc4ccccn34)c2C)cc1 | 9.17 µM | IC50 (PBLUC_HILL_SLOPE 14.5, PBLUC_R_SQUARED 0.61, read-out: LUCIFERASE INFECTION ASSAY - IC50): 7.88 µM
O=C(c1ccc(Cn2cccn2)cc1)N(C/C=C/c1ccccc1)c1ccc2c(c1)OCCO2 | 5.09 µM | IC50 (PBLUC_HILL_SLOPE 14.4, PBLUC_R_SQUARED 0.81, read-out: LUCIFERASE INFECTION ASSAY - IC50): 4.37 µM
Cc1cc(C)n(-c2cc(N3CCN(C)CC3)nc(-c3ccccc3)n2)n1 | > 9.47 µM | IC50 (PBLUC_HILL_SLOPE 14.6, PBLUC_R_SQUARED 0.207, read-out: LUCIFERASE INFECTION ASSAY - IC50): 8.77 µM
O=C(c1cccs1)N1CCN(c2cc(C(F)(F)F)nc3ccccc23)CC1 | 3.33 µM | IC50 (PBLUC_HILL_SLOPE 13.8, PBLUC_R_SQUARED 0.566, read-out: LUCIFERASE INFECTION ASSAY - IC50): 2.84 µM
COCCOc1ccc(C(F)(F)F)cc1NC(=O)c1ccc(SCc2cscn2)cc1 | > 10 µM | IC50 (PBLUC_HILL_SLOPE 14.5, PBLUC_R_SQUARED 0.0793, read-out: LUCIFERASE INFECTION ASSAY - IC50): 8.84 µM
O=C(NC1CC1)c1ccc(CN(C(=O)Nc2cccc3ccccc23)C2CC2)cc1 | 4.41 µM | IC50 (PBLUC_HILL_SLOPE 14, PBLUC_R_SQUARED 0.411, read-out: LUCIFERASE INFECTION ASSAY - IC50): 3.77 µM
CN1CCN(S(=O)(=O)c2ccc(N3CCC(c4nc5ccccc5s4)CC3)nc2)CC1 | > 10 µM | IC50 (PBLUC_HILL_SLOPE 13.7, PBLUC_R_SQUARED 0.493, read-out: LUCIFERASE INFECTION ASSAY - IC50): 9.47 µM
Cc1cc(NCc2c(F)cccc2Cl)ccc1N1CCCC1=O | > 10 µM | IC50 (PBLUC_HILL_SLOPE 14.5, PBLUC_R_SQUARED 0.0625, read-out: LUCIFERASE INFECTION ASSAY - IC50): 9.88 µM
N#C/C=C/C=C/c1nnn(-c2ccc(Cl)cc2)n1 | 12.6 µM | IC50 (PBLUC_HILL_SLOPE 14.5, PBLUC_R_SQUARED 0.28, read-out: LUCIFERASE INFECTION ASSAY - IC50): 10.9 µM
CC(=O)Nc1ccc(NC(=O)/C(C#N)=C/c2c(Cl)cccc2Cl)cc1 | > 10 µM | IC50 (PBLUC_HILL_SLOPE 14.2, PBLUC_R_SQUARED 0.281, read-out: LUCIFERASE INFECTION ASSAY - IC50): 9.36 µM
Cc1ccccc1-c1cnc2cnc(-c3ccc(CNc4ccccc4)cc3)cn12 | > 8.45 µM | IC50 (PBLUC_HILL_SLOPE 14.2, PBLUC_R_SQUARED 0.506, read-out: LUCIFERASE INFECTION ASSAY - IC50): 8.05 µM
CC(C)(C)c1ccc2nc(/C(=C\c3ccc(F)cc3)NC(=O)c3ccccc3)[nH]c2c1 | > 7.98 µM | IC50 (PBLUC_HILL_SLOPE 14.3, PBLUC_R_SQUARED 0.247, read-out: LUCIFERASE INFECTION ASSAY - IC50): 6.92 µM
CC(Nc1ccc2c(c1)Cc1ccccc1-2)C(=O)N1CCCC1 (stereo not given) | > 10 µM | IC50 (PBLUC_HILL_SLOPE 13.8, PBLUC_R_SQUARED 0.568, read-out: LUCIFERASE INFECTION ASSAY - IC50): 8.56 µM
COc1ccccc1-c1nc2c3c(C)c(C)n(CCCO)c3ncn2n1 | > 9.39 µM | IC50 (PBLUC_HILL_SLOPE 14, PBLUC_R_SQUARED 0.452, read-out: LUCIFERASE INFECTION ASSAY - IC50): 8.69 µM
CNc1nc2cnc(-c3ccc(F)cc3)cc2n1Cc1ccc(OC)c(OC)c1 | 3.97 µM | IC50 (PBLUC_HILL_SLOPE 14.4, PBLUC_R_SQUARED 0.339, read-out: LUCIFERASE INFECTION ASSAY - IC50): 3.41 µM
Cc1ccc2c(c1)C1CN(C)CCC1N2C(=O)c1sc2ccccc2c1Cl (stereo not given) | 6.62 µM | IC50 (PBLUC_HILL_SLOPE 14.0, 2.64, PBLUC_R_SQUARED 0.410, 0.165, read-out: LUCIFERASE INFECTION ASSAY - IC50): 3.64 µM
Oc1ccccc1-c1cc(-c2ccccc2)nn1Cc1ccccc1 | 3.93 µM | IC50 (PBLUC_HILL_SLOPE 14.4, PBLUC_R_SQUARED 0.373, read-out: LUCIFERASE INFECTION ASSAY - IC50): 3.37 µM
